From the NIST ThermoML archive (doi:10.1021/acs.jced.8b00348)
± gives the expanded uncertainty stated by the source. Values belong to the compound of their own block, whether it stands above or below them.

What was measured:
[1] = Liquid, Ebulliometric method (Recirculating still)
[2] = refractive index (Na D-line) (dimensionless); settings: 293.15 K; 93.13 kPa; Liquid; Standard Abbe refractometry
[3] = refractive index (Na D-line) (dimensionless); xn = mol fraction of the nth substance listed; settings: 293.15 K, 93.13 kPa, Liquid, Standard Abbe refractometry

Structure (SMILES): Cc1ccccc1C [1,2-dimethylbenzene]
- vapor or sublimation pressure ([1]; 414.41 K): 93.13 ± 0.96 kPa
- refractive index [2]: 1.5048 ± 0.0004

Structure (SMILES): Cc1ccccc1C [1,2-dimethylbenzene] + COc1ccccc1
- refractive index ([3]; x1 = 1): 1.5048 ± 0.0004

Structure (SMILES): Cc1cccc(C)c1 [1,3-dimethylbenzene]
- vapor or sublimation pressure ([1]; 409.13 K): 93.13 ± 0.96 kPa
- refractive index [2]: 1.497 ± 0.0004

Structure (SMILES): Cc1cccc(C)c1 [1,3-dimethylbenzene] + COc1ccccc1
- refractive index ([3]; x1 = 1): 1.497 ± 0.0004

Structure (SMILES): Cc1ccc(C)cc1 [1,4-dimethylbenzene]
- vapor or sublimation pressure ([1]; 408.37 K): 93.13 ± 0.96 kPa
- refractive index [2]: 1.4956 ± 0.0004

Structure (SMILES): Cc1ccc(C)cc1 [1,4-dimethylbenzene] + COc1ccccc1
- refractive index ([3]; x1 = 1): 1.4956 ± 0.0004

Structure (SMILES): COc1ccccc1 [anisole]
- vapor or sublimation pressure ([1]; 423.38 K): 93.13 ± 0.96 kPa
- refractive index [2]: 1.517 ± 0.0004

Structure (SMILES): COc1ccccc1 [anisole] + CCc1ccccc1
- refractive index ([3]; x2 = 0): 1.517 ± 0.0004
- refractive index ([3]; x2 = 0.0762): 1.5152 ± 0.0004
- refractive index ([3]; x2 = 0.1494): 1.5136 ± 0.0004
- refractive index ([3]; x2 = 0.1767): 1.513 ± 0.0004
- refractive index ([3]; x2 = 0.2118): 1.5122 ± 0.0004
- refractive index ([3]; x2 = 0.2442): 1.5115 ± 0.0004
- refractive index ([3]; x2 = 0.2691): 1.511 ± 0.0004
- refractive index ([3]; x2 = 0.3432): 1.5093 ± 0.0004
- refractive index ([3]; x2 = 0.4041): 1.508 ± 0.0004
- refractive index ([3]; x2 = 0.412): 1.5077 ± 0.0004
- refractive index ([3]; x2 = 0.4651): 1.5066 ± 0.0004
- refractive index ([3]; x2 = 0.5183): 1.5055 ± 0.0004
- refractive index ([3]; x2 = 0.6208): 1.5033 ± 0.0004
- refractive index ([3]; x2 = 0.6885): 1.5019 ± 0.0004
- refractive index ([3]; x2 = 0.7927): 1.4998 ± 0.0004
- refractive index ([3]; x2 = 0.9056): 1.4975 ± 0.0004
- refractive index ([3]; x2 = 0.9514): 1.4965 ± 0.0004

Structure (SMILES): COc1ccccc1 [anisole] + Cc1ccc(C)cc1
- refractive index ([3]; x2 = 0): 1.517 ± 0.0004
- refractive index ([3]; x2 = 0.0499): 1.5157 ± 0.0004
- refractive index ([3]; x2 = 0.1387): 1.5138 ± 0.0004
- refractive index ([3]; x2 = 0.1684): 1.5131 ± 0.0004
- refractive index ([3]; x2 = 0.2124): 1.5122 ± 0.0004
- refractive index ([3]; x2 = 0.2656): 1.511 ± 0.0004
- refractive index ([3]; x2 = 0.3055): 1.5101 ± 0.0004
- refractive index ([3]; x2 = 0.4128): 1.5078 ± 0.0004
- refractive index ([3]; x2 = 0.4494): 1.507 ± 0.0004
- refractive index ([3]; x2 = 0.4497): 1.507 ± 0.0004
- refractive index ([3]; x2 = 0.5122): 1.5057 ± 0.0004
- refractive index ([3]; x2 = 0.5626): 1.5046 ± 0.0004
- refractive index ([3]; x2 = 0.6095): 1.5036 ± 0.0004
- refractive index ([3]; x2 = 0.8055): 1.4995 ± 0.0004
- refractive index ([3]; x2 = 0.8904): 1.4978 ± 0.0004
- refractive index ([3]; x2 = 0.9613): 1.4964 ± 0.0004

Structure (SMILES): COc1ccccc1 [anisole] + Cc1cccc(C)c1
- refractive index ([3]; x2 = 0): 1.517 ± 0.0004
- refractive index ([3]; x2 = 0.0756): 1.5154 ± 0.0004
- refractive index ([3]; x2 = 0.1836): 1.5131 ± 0.0004
- refractive index ([3]; x2 = 0.2143): 1.5125 ± 0.0004
- refractive index ([3]; x2 = 0.2716): 1.5113 ± 0.0004
- refractive index ([3]; x2 = 0.3152): 1.5104 ± 0.0004
- refractive index ([3]; x2 = 0.4196): 1.5082 ± 0.0004
- refractive index ([3]; x2 = 0.4711): 1.5072 ± 0.0004
- refractive index ([3]; x2 = 0.5086): 1.5064 ± 0.0004
- refractive index ([3]; x2 = 0.6083): 1.5045 ± 0.0004
- refractive index ([3]; x2 = 0.6746): 1.5031 ± 0.0004
- refractive index ([3]; x2 = 0.7383): 1.5019 ± 0.0004
- refractive index ([3]; x2 = 0.8189): 1.5002 ± 0.0004
- refractive index ([3]; x2 = 0.8552): 1.4997 ± 0.0004
- refractive index ([3]; x2 = 0.9339): 1.4982 ± 0.0004

Structure (SMILES): COc1ccccc1 [anisole] + Cc1ccccc1C
- refractive index ([3]; x2 = 0): 1.517 ± 0.0004
- refractive index ([3]; x2 = 0.0825): 1.5159 ± 0.0004
- refractive index ([3]; x2 = 0.1066): 1.5156 ± 0.0004
- refractive index ([3]; x2 = 0.1439): 1.5151 ± 0.0004
- refractive index ([3]; x2 = 0.1945): 1.5144 ± 0.0004
- refractive index ([3]; x2 = 0.2976): 1.5131 ± 0.0004
- refractive index ([3]; x2 = 0.3812): 1.512 ± 0.0004
- refractive index ([3]; x2 = 0.4796): 1.5109 ± 0.0004
- refractive index ([3]; x2 = 0.617): 1.5092 ± 0.0004
- refractive index ([3]; x2 = 0.6785): 1.5084 ± 0.0004
- refractive index ([3]; x2 = 0.7801): 1.5072 ± 0.0004
- refractive index ([3]; x2 = 0.9159): 1.5057 ± 0.0004
- refractive index ([3]; x2 = 0.9329): 1.5056 ± 0.0004

- vapor or sublimation pressure ([1]; 406.23 K): 93.13 ± 0.96 kPa
- refractive index [2]: 1.4955 ± 0.0004
Structure (SMILES): CCc1ccccc1 [ethylbenzene]

- refractive index ([3]; x1 = 1): 1.4955 ± 0.0004
Structure (SMILES): CCc1ccccc1 [ethylbenzene] + COc1ccccc1
